# Test system: purified bovine brain PI 3-kinase
# Assay: Assay of purified PI-3 kinase activity (32P incorporation into phosphatidylinositol, TLC/scintillation)
# Format: biochemical
# Settings: at 10 ng/ml
# Method: In another, preferred, method, PI 3-kinase was prepared from bovine brain. Two bovine brains (wet weight about 900 g) were obtained from a local slaughterhouse within minutes of slaughter, packed on ice, and homogenized within one hour. Brains were trimmed of excess fat and blood vessels and then homogenized using a Tekmar Tissuemizer (Cincinnati, Ohio) at 4° C. in 20 mM of Tris(pH 8.3) containing 250 mM of sucrose, 6 mM of β-mercaptoethanol, 1 μg/ml of leupeptin, 1 μg/ml of pepstatin A, 0.4 mM of PMSF, and 1 mM of MgCl2.
# Following centrifugation for 60 minutes at 10,000 x g, the pH of the supernatant (about 1200 mL) was lowered to 5.75 using dropwise addition of 1M acetic acid at 4° C. After stirring for an additional 15 minutes at 4° C., the solution was centrifuged for 60 minutes at 13,500 x g. The supernatant was discarded. Pellets were resuspended in Buffer A (20 mM of Tris, pH 8.3, containing 6 mM of β-mercaptoethanol, 0.1 mM of ethylene glycol-bis(β-aminoethyl ether) N,N,N',N'-tetraacetic acid (EGTA), 1 μg/mL of leupeptin, 1 μg/mL of pepstatin A, and 1 mM of MgCl2), and loaded onto a Fast Flow Q Sepharose column (300 ml) at a flow rate of 5 mL/min at 4° C. After loading, the column was washed with 3 volumes of Buffer A containing 0.1M of KCl and the kinase was then eluted with a linear gradient of Buffer A/0.1M KCl to Buffer A/0.6M KCl at 3 mL/min over 7 volumes.
# Fractions were assayed for PI 3-kinase activity using 10 μL of the fraction and phosphatidylinositol as substrate as described below. PI 4-kinase eluted in the breakthrough; PI 3-kinase eluted at approximately 0.3M of KCl. The PI 3-kinase pool was subjected to a 40% ammonium sulfate precipitation. Following centrifugation (60 minutes at 13,500 x g), pellets were resuspended in Buffer B (10 mM of potassium phosphate, pH 7.4, containing 6 mM of β-mercaptoethanol, 1 μg/mL of leupeptin, 1 μg/mL of pepstatin A, and 1 mM of MgCl2), and loaded onto a 50 mL hydroxylapatite column (Calbiochem, Inc., La Jolla, Calif.) at 2.5 mL/minute. The column was washed with 150 mL Buffer B until the A280 baseline reached zero, and the kinase was then eluted with a linear gradient of 10-320 mM of KH2 PO4 at 1 mL/minute over 450 minutes.
# Active fractions were pooled and then loaded at 3 mL/minute onto a MonoS column (8 ml) (Pharmacia, Inc., Piscataway, N.J.) equilibrated in Buffer C (50 mM of MES, pH 6.2, containing 6 mM of β-mercaptoethanol, 0.1 mM of EGTA, 1 μg/mL of leupeptin, 1 μg/mL of pepstatin A, and 1 mM of MgCl2). PI 3-kinase was eluted with a linear gradient of 0-0.4M KCl in Buffer C over 120 minutes. In assaying fractions, two pools of PI 3-kinase activity were routinely found. The bulk of the activity was found in the flow-through, while about 20% of the activity was eluted in the gradient. Although the material in the gradient had considerable PI 4-kinase activity, essentially no PI 4-kinase activity was associated with the PI 3-kinase eluted in the flow-through. Therefore, the MonoS flow-through was concentrated by tangential flow filtration on a Mini-Ultrasette Omega 50 K membrane (Filtron, Inc., Northborough, Mass.) and diluted in Buffer C to lower the conductivity. The material was then reloaded onto the MonoS column using the above conditions. The PI 3-kinase bound to the column during the wash and was eluted in the gradient. Two pools of phosphatidylinositol kinase activity were obtained in the gradient; each was assayed for PI 3-kinase and PI 4-kinase activity.
# Pool I from the MonoS column was diluted with Buffer A and chromatographed on MonoQ (1 ml) and eluted with a gradient of 0-0.4M KCl in Buffer A. The final pool was assayed for PI 3-kinase and PI 4-kinase activity.
# PI 3-kinase activity was measured as previously described by Matter, W. F., et al., Biochemical and Biophysical Research Communications, 186: 624-631 (1992). […]
row,SMILES,inhibition vs. PI-3-kinase [%]
1,"COC[C@H]1OC(=O)c2coc3c2[C@@]1(C)C1=C(C3=O)[C@@H]2CCC(=O)[C@@]2(C)C[C@H]1O [f, 11-desacetyl wortmannin]",50

# Same assay, conditions: purified bovine brain PI 3-kinase, 10 min preincubation, 20 μM ATP, 3% DMSO
row,SMILES,IC50 for inhibition of PI-3-kinase [ng/mL]
1,"COC[C@H]1OC(=O)c2coc3c2[C@@]1(C)C1=C(C3=O)[C@@H]2CCC(=O)[C@@]2(C)C[C@H]1O [f, 11-desacetyl wortmannin]",10
2,"COC[C@H]1OC(=O)c2coc3c2[C@@]1(C)C1=C(C3=O)[C@@H]2CCC(=O)[C@@]2(C)C[C@H]1OC(=O)CCl [l, 11-chloroacetyldesacetyl-Wortmannin]",1.3
3,"CCC(=O)O[C@@H]1C[C@]2(C)C(=O)CC[C@H]2C2=C1[C@]1(C)c3c(coc3C2=O)C(=O)O[C@@H]1COC [g, 11-propionyl-desacetyl-Wortmannin]",0.6
4,"COC[C@H]1OC(=O)c2coc3c2[C@@]1(C)C1=C(C3=O)[C@@H]2CCC(=O)[C@@]2(C)CC1=O [c, 11-dehydro Wortmannin]",1.6
5,"COC[C@H]1OC(=O)c2coc3c2[C@@]1(C)C1=C(C3=O)[C@@H]2CCC(=O)[C@@]2(C)C[C@H]1OC(=O)CCN(C)C [k, 11-dimethylaminopropionyl-desacetyl-Wortmannin]",8.6
6,"C=CC(=O)O[C@@H]1C[C@]2(C)C(=O)CC[C@H]2C2=C1[C@]1(C)c3c(coc3C2=O)C(=O)O[C@@H]1COC [m, 11-acrylyl-desacetyl-wortmannin]",0.95
7,"COC[C@H]1OC(=O)c2coc3c2[C@@]1(C)C1=C(C3=O)[C@@H]2CCC(O)[C@@]2(C)C[C@H]1O (stereo partly shown) [d, 11,17-desacetyl-dihydro Wortmannin]",> 10
8,"CCCC(=O)O[C@@H]1C[C@]2(C)C(=O)CC[C@H]2C2=C1[C@]1(C)c3c(coc3C2=O)C(=O)O[C@@H]1COC [h, 11-butyryl-desacetyl-Wortmannin]",0.4
9,"CCC(=O)O[C@@H]1C[C@]2(C)[C@@H](O)CC[C@H]2C2=C1[C@]1(C)c3c(coc3C2=O)C(=O)O[C@@H]1COC [e, 11-propionyl-17-hydroxy-desacetyl-dihydro-Wortmannin]",0.38
10,"CCCCC(=O)O[C@@H]1C[C@]2(C)C(=O)CC[C@H]2C2=C1[C@]1(C)c3c(coc3C2=O)C(=O)O[C@@H]1COC [i, 11-valeryl-desacetyl-Wortmannin]",1.2
11,CCN(C=C1C(=O)O[C@H](COC)[C@@]2(C)C1=C(O)C(=O)C1=C2[C@H](O)C[C@]2(C)C(=O)CC[C@@H]12)CC [b],> 10
12,"COC[C@H]1OC(=O)c2coc3c2[C@@]1(C)C1=C(C3=O)[C@@H]2CCC(=O)[C@@]2(C)C[C@H]1OC(=O)CC(C)C [iA, 11-isovaleryl-desacetyl-Wortmannin]",1.16
13,"CCC(=O)O[C@@H]1C[C@]2(C)[C@@H](OC(C)=O)CC[C@H]2C2=C1[C@]1(C)c3c(coc3C2=O)C(=O)O[C@@H]1COC [j, 11-propionyl-17-acetyl-desacetyl-dihydro-Wortmannin]",56.5
14,"COC[C@H]1OC(=O)c2coc3c2[C@@]1(C)C1=C(C3=O)[C@@H]2CCC(=O)[C@@]2(C)C[C@H]1OC(=O)Cc1ccccc1 [n, 11-phenylacetyl-desacetyl-Wortmannin]",1.53

# Test system: laboratory animals
# Assay: not given
# Settings: even in low dosages, pure form; cited from earlier work
row,SMILES,toxicity to living creatures (lethality)
1,"COC[C@H]1OC(=O)c2coc3c2[C@@]1(C)C1=C(C3=O)[C@@H]2CCC(=O)[C@@]2(C)C[C@H]1OC(C)=O [wortmannin, Wortmannin]",often lethal
